Measurements taken from US5679680A, “α-substituted hydrazides having calpain inhibitory activity” (Warner-Lambert Company, priority 1995, dated 1997).

Tests used:
Human Calpain II = biological target: T1, Human Calpain II (Homo sapiens, UniProt P17655); test: Calpain II activity, casein substrate, Coomassie microplate assay; assay type: biochemical; conditions: casein 0.5 mg/mL (Table I)
T1 sequence (P17655 1-700): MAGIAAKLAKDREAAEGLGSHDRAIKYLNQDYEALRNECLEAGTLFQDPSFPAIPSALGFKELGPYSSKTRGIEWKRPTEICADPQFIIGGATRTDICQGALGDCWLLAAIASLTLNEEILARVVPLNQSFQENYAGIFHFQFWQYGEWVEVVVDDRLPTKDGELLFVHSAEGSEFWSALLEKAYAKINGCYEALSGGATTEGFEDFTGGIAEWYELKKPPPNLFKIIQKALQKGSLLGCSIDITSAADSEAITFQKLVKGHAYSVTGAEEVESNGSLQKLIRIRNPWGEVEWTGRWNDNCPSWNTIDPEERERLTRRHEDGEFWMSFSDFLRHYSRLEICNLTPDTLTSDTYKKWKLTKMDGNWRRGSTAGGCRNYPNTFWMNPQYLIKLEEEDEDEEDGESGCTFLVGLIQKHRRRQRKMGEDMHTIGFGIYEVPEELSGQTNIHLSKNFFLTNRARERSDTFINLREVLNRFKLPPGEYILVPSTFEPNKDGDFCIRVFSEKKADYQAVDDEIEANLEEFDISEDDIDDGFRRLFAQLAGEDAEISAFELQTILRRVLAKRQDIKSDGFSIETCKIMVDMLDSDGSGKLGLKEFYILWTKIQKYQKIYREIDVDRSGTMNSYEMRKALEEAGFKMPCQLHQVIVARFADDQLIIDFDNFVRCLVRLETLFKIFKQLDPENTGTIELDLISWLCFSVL
T1 sequence (P04632 1-268 partner): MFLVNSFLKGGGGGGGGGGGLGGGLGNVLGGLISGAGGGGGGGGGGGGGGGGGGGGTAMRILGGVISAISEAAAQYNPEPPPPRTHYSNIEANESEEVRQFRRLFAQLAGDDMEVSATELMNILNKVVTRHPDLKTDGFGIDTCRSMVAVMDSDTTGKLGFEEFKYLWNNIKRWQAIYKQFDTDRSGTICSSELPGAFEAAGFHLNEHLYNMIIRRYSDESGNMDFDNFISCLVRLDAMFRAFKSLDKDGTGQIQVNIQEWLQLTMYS
Description: Assay of calpain activity: Calpain I was purified from human erythrocytes as described by Wang K K W, Roufogalis B D, and Villalobo A, Arch Biochem Biophys 1988;267: 317-327. Calpain activity was assayed in a 96-well microplate format (Buroker-Kilgore M and Wang K K W, Anal Bio Chem 1993;208: 387-392). In 250 μL of reaction mixture, substrate casein (0.5 mg/mL) was incubated with 0.01 unit (80-120 ng) calpain I, 20 mM dithiothreitol (DTT), 50 mM Tris-HCl (pH 7.4 at 25° C.) and 4 mM CaCl2 at 25° C. for 60 minutes. Two 100-μL aliquots were taken for Coomassie blue G250 binding analysis to quantify the remaining casein.
Compound concentrations that cause 50% inhibition (IC50) are as shown (Table I). The second rate of inactivation of calpain I for 2 compounds are also shown.
(§1) Selectivity of α-substituted Hydrazides: Calpain I and II were assayed as described in Example 1. One to 2 ng papain (papaya latex, Sigma, P3125), 1.25 μg trypsin (bovine pancreas, Sigma, T8003), 5 μg thermolysin (Bacillus thermoproteolyticus, Sigma, P1512) were assayed using 0.5 mg/mL casein as substrate in the microplate format (250 μL reaction volume), essentially a described by Buroker-Kilgore, M. and Wang K K W, Anal Biochem 1993;208: 387-392. Cathepsin B (0.002 unit, bovine spleen) was assayed with 50 mM MES (pH 5.5), 100 μM carbobenzoxy-Arg-Arg-4-methoxy-beta-naphthlamide (Cbz-Arg-Arg-MNA), inhibitor, and 2 mM DTT in 200 μL for 60 minutes at room temperature. Fifty-microliter aliquots were transferred to a fluorescence-compatible plate and then read with a Perkin-Elmer fluorometer LS-50B (excitation 340 nm and emission 425 nm). Calcineurin (bovine brain, Sigma) (5 μg, 0.8 unit) was assayed with 10 mM p-nitrophenyl phosphate in 1 mM DTT, 1 mM CaCl2, 1 mM MnCl2, […] calmodulin (CaM, if added), and 50 mM Tris-HCl (pH 7.4) at 25° C. for 60 minutes or more. Production of p-nitrophenol was monitored at 405 nm. Inhibition of these proteases are presented as IC50.

Papain = biological target: T2, Papain (Carica papaya, UniProt P00784); test: Papain assay, casein substrate; assay type: biochemical; conditions: 0.5 mg/mL casein
T2 construct: purchased Sigma P3125; host or cells: papaya latex
T2 sequence (P00784 134-345): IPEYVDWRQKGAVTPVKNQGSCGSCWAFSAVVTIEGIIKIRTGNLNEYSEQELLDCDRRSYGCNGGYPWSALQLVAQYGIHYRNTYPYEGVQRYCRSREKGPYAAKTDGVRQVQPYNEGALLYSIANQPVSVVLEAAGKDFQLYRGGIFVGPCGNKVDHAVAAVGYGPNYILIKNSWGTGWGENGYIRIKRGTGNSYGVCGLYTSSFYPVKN
Description: as §1

[1] = system: Spectrin Breakdown in Human Leukemic Molt-4 cells; test: Cell-based calpain assay: spectrin breakdown in Molt-4 cells treated with calcium ionophore A23187; conditions: 1 hour preincubation, 15 μM A23187, 90 minutes, read-out: IC50 for inhibition of spectrin breakdown (145 kD fragment formation)
Description: Calpain inhibitor was added to the wells if desired and preincubated for 1 hour. […] The cells were then lysed with 2% (w/v) SDS, 5 mM EGTA, 5 mM EDTA, 150 mM NaCl, 0.5 mM PMSF, 10 μg/mL AEBSF, 5 μg/mL leupeptin, 10 μg/mL pepstatin, 10 μg/mL TLCK, 10 μg/mL TPCK, and 20 mM Tris-HCl (pH 7.4) at room temperature for 5 to 10 minutes. One hundred microliters of 100% (w/v) TCA was added and total protein precipitate was collected by microcentrifugation. The final pellets were neutralized with Tris base. Protein samples (50 μg) were run on SDS-PAGE with the Tris-glycine running buffer system and transferred onto a PVDF membrane. The blots were probed with an anti-spectrin (nonerythroid) antibody and a second antibody with alkaline phosphatase conjugate. The blots were developed with nitro blue tetrazolium and 5-bromo-4-chloro-3-indolyl-phosphate.

[2] = system: Fetal Rat Cerebrocortical Cultures; test: Oxygen/glucose deprivation induced LDH release from fetal rat cerebrocortical cultures; assay type: cell-based

## O=C(CCl)NN=c1[nH]c2ccccc2n(-c2ccccc2)c1=O [Example 5, 2-Chloro-acetic acid (3-oxo-4-phenyl-3,4-dihydro-1H-quinoxalin-2-ylidene)-hydrazide]
Human Calpain II
  IC50: 590 nM
Papain
  IC50: 5.6 µM
[1]
  IC50: 25 µM
[2]; Hypoxia/Hypoglycemia, mean ± SEM (6), p < 0.001 vs Hypoxia/Hypoglycemia alone (143.81 ± 9.72), Normoxia 46.13 ± 6.08
  LDH release: 57.27 ± 8.11 Unit/mL
[2]; LDH release after 24 hours
  Resistance of neurons to oxygen/glucose deprivation: enabled the neurons to resist the oxygen/glucose deprivation for longer
